Measurements: the supplement of paper PMC4862054

How the values were obtained:
Assay in all cases: normalised viability (% of control), CellTiter-Blue; higher = more viable cells (about 100 = DMSO control)
Conditions in all cases: incubation time: 72 h
MDA-MB-436 = tested on: MDA-MB-436
How it was run: (§1)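 After 72 h on compound-loaded 384-well plates, breast cancer cell lines received 2.5 µl CellTiter-Blue reagent for 2 h at 37 °C. Fluorescence at 560/590 nm was scaled per plate so that vehicle was 100 and a positive kill control was 0. The value stands for normalised viability at a single listed concentration of the series.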

HDQ-P1 = tested on: HDQ-P1
How it was run: as §1

CAL-148 = tested on: CAL-148
How it was run: as §1

MDA-MB-453 = tested on: MDA-MB-453
How it was run: as §1

BT-549 = tested on: BT-549
How it was run: as §1

BT-474 = tested on: BT-474
How it was run: as §1

HCC1143 = tested on: HCC1143
How it was run: as §1

SK-BR-3 = tested on: SK-BR-3
How it was run: as §1

HCC1599 = tested on: HCC1599
How it was run: as §1

Compound: CO[C@@H]1[C@H](N(C)C(=O)c2ccccc2)C[C@H]2O[C@]1(C)n1c3ccccc3c3c4c(c5c6ccccc6n2c5c31)C(=O)NC4 [Midostaurin]
- normalised viability (MDA-MB-436; 10 nM): 94.2%
- normalised viability (MDA-MB-436; 1000 nM): 62.7%
- normalised viability (MDA-MB-436; 10000 nM): 57.2%
- normalised viability (HDQ-P1; 3 nM): 84.7%
- normalised viability (HDQ-P1; 30 nM): 95.7%
- normalised viability (HDQ-P1; 100 nM): 96.8%
- normalised viability (CAL-148; 3 nM): 115%
- normalised viability (CAL-148; 30 nM): 105%
- normalised viability (CAL-148; 100 nM): 129%
- normalised viability (MDA-MB-453; 3 nM): 108%
- normalised viability (MDA-MB-453; 30 nM): 92.1%
- normalised viability (MDA-MB-453; 100 nM): 87.2%
- normalised viability (BT-549; 10 nM): 80.4%
- normalised viability (BT-549; 1000 nM): 59.5%
- normalised viability (BT-549; 10000 nM): 18.7%
- normalised viability (BT-474; 10 nM): 105%
- normalised viability (BT-474; 1000 nM): 91.3%
- normalised viability (BT-474; 10000 nM): 84.3%
- normalised viability (HCC1143; 10 nM): 145%
- normalised viability (HCC1143; 1000 nM): 75%
- normalised viability (HCC1143; 10000 nM): 61.3%
- normalised viability (SK-BR-3; 10 nM): 94%
- normalised viability (SK-BR-3; 1000 nM): 77.4%
- normalised viability (SK-BR-3; 10000 nM): 39.5%
- normalised viability (HCC1599; 10 nM): 106%
- normalised viability (HCC1599; 1000 nM): 78.8%
- normalised viability (HCC1599; 10000 nM): 72.6%

Compound: CCNC(=O)CCC/C=C\C[C@@H]1[C@@H](/C=C/[C@@H](O)CCc2ccccc2)[C@H](O)C[C@@H]1O [Bimatoprost]
- normalised viability (MDA-MB-436; 5.5 nM): 111%
- normalised viability (MDA-MB-436; 550 nM): 111%
- normalised viability (MDA-MB-436; 5500 nM): 103%
- normalised viability (HDQ-P1; 1.65 nM): 111%
- normalised viability (HDQ-P1; 16.5 nM): 103%
- normalised viability (HDQ-P1; 55 nM): 102%
- normalised viability (CAL-148; 1.65 nM): 92.6%
- normalised viability (CAL-148; 16.5 nM): 90.9%
- normalised viability (CAL-148; 55 nM): 95.2%
- normalised viability (MDA-MB-453; 1.65 nM): 116%
- normalised viability (MDA-MB-453; 16.5 nM): 91.7%
- normalised viability (MDA-MB-453; 55 nM): 92.5%
- normalised viability (BT-549; 5.5 nM): 102%
- normalised viability (BT-549; 550 nM): 109%
- normalised viability (BT-549; 5500 nM): 85.5%
- normalised viability (BT-474; 5.5 nM): 112%
- normalised viability (BT-474; 550 nM): 106%
- normalised viability (BT-474; 5500 nM): 127%
- normalised viability (HCC1143; 5.5 nM): 102%
- normalised viability (HCC1143; 550 nM): 104%
- normalised viability (HCC1143; 5500 nM): 94.2%
- normalised viability (SK-BR-3; 5.5 nM): 98.7%
- normalised viability (SK-BR-3; 550 nM): 110%
- normalised viability (SK-BR-3; 5500 nM): 97%
- normalised viability (HCC1599; 5.5 nM): 111%
- normalised viability (HCC1599; 550 nM): 111%
- normalised viability (HCC1599; 5500 nM): 112%

Compound: C=CCN(/C=C1/C(=O)O[C@H](COC)[C@@]2(C)C1=C(O)C(=O)C1=C2[C@H](OC(C)=O)C[C@]2(C)C(=O)CC[C@@H]12)CC=C [PX-866]
- normalised viability (MDA-MB-436; 10 nM): 93.3%
- normalised viability (MDA-MB-436; 1000 nM): 90.2%
- normalised viability (MDA-MB-436; 10000 nM): 62%
- normalised viability (HDQ-P1; 3 nM): 113%
- normalised viability (HDQ-P1; 30 nM): 128%
- normalised viability (HDQ-P1; 100 nM): 114%
- normalised viability (CAL-148; 3 nM): 97.2%
- normalised viability (CAL-148; 30 nM): 105%
- normalised viability (CAL-148; 100 nM): 107%
- normalised viability (MDA-MB-453; 3 nM): 128%
- normalised viability (MDA-MB-453; 30 nM): 95.7%
- normalised viability (MDA-MB-453; 100 nM): 98.9%
- normalised viability (BT-549; 10 nM): 87.8%
- normalised viability (BT-549; 1000 nM): 81.9%
- normalised viability (BT-549; 10000 nM): 57%
- normalised viability (BT-474; 10 nM): 118%
- normalised viability (BT-474; 1000 nM): 87.3%
- normalised viability (BT-474; 10000 nM): 41.9%
- normalised viability (HCC1143; 10 nM): 91.6%
- normalised viability (HCC1143; 1000 nM): 80.8%
- normalised viability (HCC1143; 10000 nM): 60.8%
- normalised viability (SK-BR-3; 10 nM): 109%
- normalised viability (SK-BR-3; 1000 nM): 61.7%
- normalised viability (SK-BR-3; 10000 nM): 28.5%
- normalised viability (HCC1599; 10 nM): 98.3%
- normalised viability (HCC1599; 1000 nM): 105%
- normalised viability (HCC1599; 10000 nM): 78.3%

Compound: COc1c2occc2cc2ccc(=O)oc12 [Methoxsalen]
- normalised viability (MDA-MB-436; 10 nM): 90.6%
- normalised viability (MDA-MB-436; 1000 nM): 87.1%
- normalised viability (MDA-MB-436; 10000 nM): 93.8%
- normalised viability (HDQ-P1; 3 nM): 115%
- normalised viability (HDQ-P1; 30 nM): 104%
- normalised viability (HDQ-P1; 100 nM): 105%
- normalised viability (CAL-148; 3 nM): 98.7%
- normalised viability (CAL-148; 30 nM): 95.8%
- normalised viability (CAL-148; 100 nM): 100%
- normalised viability (MDA-MB-453; 3 nM): 119%
- normalised viability (MDA-MB-453; 30 nM): 103%
- normalised viability (MDA-MB-453; 100 nM): 112%
- normalised viability (BT-549; 10 nM): 90.9%
- normalised viability (BT-549; 1000 nM): 104%
- normalised viability (BT-549; 10000 nM): 82.9%
- normalised viability (BT-474; 10 nM): 123%
- normalised viability (BT-474; 1000 nM): 102%
- normalised viability (BT-474; 10000 nM): 117%
- normalised viability (HCC1143; 10 nM): 91.8%
- normalised viability (HCC1143; 1000 nM): 99.1%
- normalised viability (HCC1143; 10000 nM): 94.2%
- normalised viability (SK-BR-3; 10 nM): 104%
- normalised viability (SK-BR-3; 1000 nM): 127%
- normalised viability (SK-BR-3; 10000 nM): 104%
- normalised viability (HCC1599; 10 nM): 106%
- normalised viability (HCC1599; 1000 nM): 85%
- normalised viability (HCC1599; 10000 nM): 93.5%

Compound: CCNC(=O)c1noc(-c2cc(C(C)C)c(O)cc2O)c1-c1ccc(CN2CCOCC2)cc1 [NVP-AUY922]
- normalised viability (MDA-MB-436; 1 nM): 111%
- normalised viability (MDA-MB-436; 100 nM): 11.2%
- normalised viability (MDA-MB-436; 1000 nM): 19.9%
- normalised viability (HDQ-P1; 0.3 nM): 94%
- normalised viability (HDQ-P1; 3 nM): 97.8%
- normalised viability (HDQ-P1; 10 nM): 64.9%
- normalised viability (CAL-148; 0.3 nM): 98.7%
- normalised viability (CAL-148; 3 nM): 108%
- normalised viability (CAL-148; 10 nM): 112%
- normalised viability (MDA-MB-453; 0.3 nM): 124%
- normalised viability (MDA-MB-453; 3 nM): 98%
- normalised viability (MDA-MB-453; 10 nM): 83.2%
- normalised viability (BT-549; 1 nM): 113%
- normalised viability (BT-549; 100 nM): 29.3%
- normalised viability (BT-549; 1000 nM): 31.7%
- normalised viability (BT-474; 1 nM): 102%
- normalised viability (BT-474; 100 nM): 27.7%
- normalised viability (BT-474; 1000 nM): 22.3%
- normalised viability (HCC1143; 1 nM): 119%
- normalised viability (HCC1143; 100 nM): 45%
- normalised viability (HCC1143; 1000 nM): 47.7%
- normalised viability (SK-BR-3; 1 nM): 106%
- normalised viability (SK-BR-3; 100 nM): 16.2%
- normalised viability (SK-BR-3; 1000 nM): 16.8%
- normalised viability (HCC1599; 1 nM): 101%
- normalised viability (HCC1599; 100 nM): 43.4%
- normalised viability (HCC1599; 1000 nM): 41.2%

Compound: CC1(C)CCC(c2ccc(Cl)cc2)=C(CN2CCN(c3ccc(C(=O)NS(=O)(=O)c4ccc(N[C@H](CCN5CCOCC5)CSc5ccccc5)c(S(=O)(=O)C(F)(F)F)c4)cc3)CC2)C1 [Navitoclax]
- normalised viability (MDA-MB-436; 10 nM): 76.2%
- normalised viability (MDA-MB-436; 1000 nM): 98.7%
- normalised viability (MDA-MB-436; 10000 nM): 71.7%
- normalised viability (HDQ-P1; 3 nM): 81.4%
- normalised viability (HDQ-P1; 30 nM): 79.7%
- normalised viability (HDQ-P1; 100 nM): 79.3%
- normalised viability (CAL-148; 3 nM): 85.1%
- normalised viability (CAL-148; 30 nM): 88.2%
- normalised viability (CAL-148; 100 nM): 89.2%
- normalised viability (MDA-MB-453; 3 nM): 104%
- normalised viability (MDA-MB-453; 30 nM): 88.5%
- normalised viability (MDA-MB-453; 100 nM): 74.9%
- normalised viability (BT-549; 10 nM): 80.7%
- normalised viability (BT-549; 1000 nM): 79.7%
- normalised viability (BT-549; 10000 nM): 78.1%
- normalised viability (BT-474; 10 nM): 96.3%
- normalised viability (BT-474; 1000 nM): 95.2%
- normalised viability (BT-474; 10000 nM): 63%
- normalised viability (HCC1143; 10 nM): 71.8%
- normalised viability (HCC1143; 1000 nM): 78.1%
- normalised viability (HCC1143; 10000 nM): 65.3%
- normalised viability (SK-BR-3; 10 nM): 83.8%
- normalised viability (SK-BR-3; 1000 nM): 86%
- normalised viability (SK-BR-3; 10000 nM): 73.2%
- normalised viability (HCC1599; 10 nM): 94.5%
- normalised viability (HCC1599; 1000 nM): 62.2%
- normalised viability (HCC1599; 10000 nM): 74.7%
